According to patent US12540137B2, “N-1 branched alkyl ether substituted imidazo[4,5-c]quinoline compounds, compositions, and methods” (Solventum Intellectual Properties Company, priority 2018, dated 2026):

Key:
[1] = molecular target: T1, human TLR8 (Homo sapiens, UniProt Q9NR97); assay: TLR activation, HEK-BLUE-hTLR8 SEAP reporter cells; assay type: cell-based; details: 16-20 hours, SEAP response at least 2× vehicle control, tested 0.01-30 micromolar
T1 construct: host or cells: HEK293 (HEK-BLUE-hTLR8)
T1 sequence (Q9NR97 27-1041): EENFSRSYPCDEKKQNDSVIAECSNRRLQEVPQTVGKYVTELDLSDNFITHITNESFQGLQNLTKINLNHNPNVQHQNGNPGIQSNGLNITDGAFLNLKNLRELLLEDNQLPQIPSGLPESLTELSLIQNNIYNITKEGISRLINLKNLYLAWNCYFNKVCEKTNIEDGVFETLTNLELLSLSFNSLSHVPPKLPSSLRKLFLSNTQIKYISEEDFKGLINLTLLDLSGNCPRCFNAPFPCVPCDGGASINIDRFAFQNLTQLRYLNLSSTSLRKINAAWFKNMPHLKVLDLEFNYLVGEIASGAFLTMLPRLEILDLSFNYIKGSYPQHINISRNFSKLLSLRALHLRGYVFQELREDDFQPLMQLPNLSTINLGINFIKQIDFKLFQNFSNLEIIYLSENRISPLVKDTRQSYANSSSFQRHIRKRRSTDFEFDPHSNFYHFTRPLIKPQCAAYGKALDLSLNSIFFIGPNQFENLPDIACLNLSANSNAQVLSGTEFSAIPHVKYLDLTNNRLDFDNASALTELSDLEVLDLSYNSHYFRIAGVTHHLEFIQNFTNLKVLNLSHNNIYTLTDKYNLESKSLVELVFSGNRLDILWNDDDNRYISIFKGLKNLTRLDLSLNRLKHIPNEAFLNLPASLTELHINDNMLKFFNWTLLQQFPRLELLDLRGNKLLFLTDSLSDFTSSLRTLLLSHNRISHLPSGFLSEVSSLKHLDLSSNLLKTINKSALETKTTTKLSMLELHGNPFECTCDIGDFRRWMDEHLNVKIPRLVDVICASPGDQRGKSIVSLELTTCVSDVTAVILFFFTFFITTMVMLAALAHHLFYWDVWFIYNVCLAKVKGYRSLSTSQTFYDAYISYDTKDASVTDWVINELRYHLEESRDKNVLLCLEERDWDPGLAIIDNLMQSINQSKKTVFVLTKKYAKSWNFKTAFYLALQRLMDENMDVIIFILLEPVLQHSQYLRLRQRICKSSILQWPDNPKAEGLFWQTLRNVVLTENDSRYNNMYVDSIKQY
Protocol: (§1) HEK-BLUE-hTLR7 or hTLR8 reporter cells were obtained from InvivoGen, San Diego, CA. According to the manufacturer's description, these reporter cells were prepared by co-transfection of HEK293 cells with an inducible secreted embryonic alkaline phosphatase (SEAP) reporter gene and either the human TLR7 or TLR8 gene. The SEAP reporter gene was placed under the control of an IFN−β minimal promoter fused to five NF-κB and AP-1-binding sites. In the presence of a TLR ligand, activation of NF-κB and AP-1 occurs, resulting in a corresponding increase in SEAP levels.
(§2) In the assay, the HEK cells were grown and maintained using standard cell culture techniques in a growth medium that contained Dulbecco's Modified Eagle Medium (ThermoFisher Scientific Incorporated, Waltham, MA) supplemented with 1% penicillin/streptomycin and 10% heat-inactivated Gibco fetal bovine serum (ThermoFisher Scientific). Each compound was solubilized in DMSO to create a 3 mM stock solution. The stock solution was then further diluted with the growth medium to prepare serial dilutions. Each test compound was tested at a concentration of 30, 10, 3.3, 1.1, 0.37, 0.12, 0.04, and 0.01 micromolar using a 96-well format with 5×10^4 cells and 200 microliters of growth medium per well.
(§3) For each compound, hTLR7, hTLR8, and their respective null control HEK cells were screened. DMSO serially diluted into the growth medium served as the vehicle control. Cell culture supernatants containing the SEAP reporter were collected after an incubation period of 16-20 hours in a cell culture incubator (37° C. and 5% CO2), and either analyzed immediately or stored at −80° C. SEAP levels were measured using the colorimetric enzyme assay (QUANTI-BLUE (InvivoGen) according to manufacturer's instructions.
(§4) Specifically, the minimum effective concentration of each compound (micromolar) was determined as the lowest concentration of the compound that produced a SEAP expression response at least 2× greater than that observed with the vehicle control wells.

[2] = molecular target: T2, human TLR7 (Homo sapiens, UniProt Q9NYK1); assay: TLR activation, HEK-BLUE-hTLR7 SEAP reporter cells; assay type: cell-based; details: 16-20 hours, SEAP response at least 2× vehicle control, tested 0.01-30 micromolar
T2 construct: host or cells: HEK293 (HEK-BLUE-hTLR7)
T2 sequence (Q9NYK1 27-1049): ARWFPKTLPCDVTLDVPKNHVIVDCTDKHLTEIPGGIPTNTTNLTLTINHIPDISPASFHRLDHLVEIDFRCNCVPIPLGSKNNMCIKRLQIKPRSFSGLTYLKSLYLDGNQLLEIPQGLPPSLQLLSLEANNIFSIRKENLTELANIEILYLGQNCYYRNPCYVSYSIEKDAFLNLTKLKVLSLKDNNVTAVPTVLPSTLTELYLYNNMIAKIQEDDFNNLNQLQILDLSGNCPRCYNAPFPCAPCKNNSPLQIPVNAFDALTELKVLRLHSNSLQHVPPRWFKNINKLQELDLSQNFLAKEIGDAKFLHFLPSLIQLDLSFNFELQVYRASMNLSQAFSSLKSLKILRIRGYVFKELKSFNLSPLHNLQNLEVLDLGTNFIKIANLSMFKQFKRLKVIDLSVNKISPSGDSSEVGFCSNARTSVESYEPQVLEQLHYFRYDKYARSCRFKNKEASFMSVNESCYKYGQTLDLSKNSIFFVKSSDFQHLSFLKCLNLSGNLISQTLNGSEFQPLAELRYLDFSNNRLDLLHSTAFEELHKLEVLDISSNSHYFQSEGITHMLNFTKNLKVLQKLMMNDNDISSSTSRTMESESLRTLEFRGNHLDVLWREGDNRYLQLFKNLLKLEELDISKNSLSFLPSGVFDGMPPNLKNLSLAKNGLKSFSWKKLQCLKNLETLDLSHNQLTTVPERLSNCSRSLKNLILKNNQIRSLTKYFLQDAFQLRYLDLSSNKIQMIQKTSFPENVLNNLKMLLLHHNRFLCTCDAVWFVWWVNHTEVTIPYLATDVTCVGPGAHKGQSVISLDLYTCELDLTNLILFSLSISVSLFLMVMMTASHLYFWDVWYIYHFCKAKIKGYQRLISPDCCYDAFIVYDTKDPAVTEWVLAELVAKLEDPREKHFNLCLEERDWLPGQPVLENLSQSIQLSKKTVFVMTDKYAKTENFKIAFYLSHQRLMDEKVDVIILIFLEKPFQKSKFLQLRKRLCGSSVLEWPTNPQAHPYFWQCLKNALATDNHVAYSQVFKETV
Protocol: as §1, §2, §3, §4

Row | SMILES | MEC to Produce TLR Activation TLR 8 [1] | MEC to Produce TLR Activation TLR 7 [2]
1 | CCOC[C@H](C(C)C)n1cnc2c(N)nc3ccccc3c21 [Example 1, 1-[(1S)-1-(ethoxymethyl)-2-methyl-propyl]imidazo[4,5-c]quinolin-4-amine] | 30 µM | 0.12 µM
2 | CCOC[C@@H](C(C)C)n1c(C)nc2c(N)nc3ccccc3c21 [Example 4, 1-[(1R)-1-(ethoxymethyl)-2-methyl-propyl]-2-methyl-imidazo[4,5-c]quinolin-4-amine] | >30 µM | >30 µM
3 | CCOC[C@H](n1cnc2c(N)nc3ccccc3c21)C(C)(C)C [Example 10, 1-[(1R)-1-(ethoxymethyl)-2,2-dimethyl-propyl]imidazo[4,5-c]quinolin-4-amine] | >30 µM | 30 µM
4 | CCOC[C@@H](n1cnc2c(N)nc3ccccc3c21)C(O)(CC)CC [Example 12, (2R)-2-(4-aminoimidazo[4,5-c]quinolin-1-yl)-1-ethoxy-3-ethyl-pentan-3-ol] | 30 µM | 0.04 µM
5 | CCOC[C@@H](n1c(C)nc2c(N)nc3ccccc3c21)C(C)(C)O [Example 7, (3R)-3-(4-amino-2-methyl-imidazo[4,5-c]quinolin-1-yl)-4-ethoxy-2-methyl-butan-2-ol] | 1.1 µM | 0.37 µM
6 | CCOC[C@@H](C(C)C)n1cnc2c(N)nc3ccccc3c21 [Example 2, 1-[(1R)-1-(ethoxymethyl)-2-methyl-propyl]imidazo[4,5-c]quinolin-4-amine] | >30 µM | 3.3 µM
7 | CCOC[C@H](n1cnc2c(N)nc3ccccc3c21)C(C)(C)O [Example 6, (3S)-3-(4-aminoimidazo[4,5-c]quinolin-1-yl)-4-ethoxy-2-methyl-butan-2-ol] | >30 µM | >30 µM
8 | CCO[C@@H](C)[C@@H](n1cnc2c(N)nc3ccccc3c21)C(C)(C)O [Example 13, (3R,4S)-3-(4-aminoimidazo[4,5-c]quinolin-1-yl)-4-ethoxy-2-methyl-pentan-2-ol] | 10 µM | 3.3 µM

Other lines, results leading:

Row | MEC to Produce TLR Activation TLR 8 [1] | MEC to Produce TLR Activation TLR 7 [2] | SMILES
9 | 30 µM | ≤0.01 µM | CCOC[C@@H](n1cnc2c(N)nc3ccccc3c21)C(C)(C)C [Example 9, 1-[(1S)-1-(ethoxymethyl)-2,2-dimethyl-propyl]imidazo[4,5-c]quinolin-4-amine]
10 | 30 µM | 1.1 µM | CCOC[C@H](C(C)C)n1c(C)nc2c(N)nc3ccccc3c21 [Example 3, 1-[(1S)-1-(ethoxymethyl)-2-methyl-propyl]-2-methyl-imidazo[4,5-c]quinolin-4-amine]
11 | 10 µM | 10 µM | CCOC[C@@H](n1c(CC)nc2c(N)nc3ccccc3c21)C(C)(C)O [Example 8, (3R)-3-(4-amino-2-ethyl-imidazo[4,5-c]quinolin-1-yl)-4-ethoxy-2-methyl-butan-2-ol]
12 | 3.3 µM | ≤0.01 µM | CCOC[C@@H](n1cnc2c(N)nc3ccccc3c21)C(C)(C)O [Example 5, (3R)-3-(4-aminoimidazo[4,5-c]quinolin-1-yl)-4-ethoxy-2-methyl-butan-2-ol]
13 | >30 µM | 0.04 µM | COC[C@@H](n1cnc2c(N)nc3ccccc3c21)C(C)(C)C [Example 11, 1-[(1S)-1-(methoxymethyl)-2,2-dimethyl-propyl]imidazo[4,5-c]quinolin-4-amine]
